The Vmax is the top rate of the reaction or transport when substrate is in excess. Usually Km stands for the substrate concentration at which the rate is half of its maximum.

Structures are written as SMILES.

This note sets out measurements from ChEMBL document CHEMBL3525932, “Comparison of metabolism of sesamin and episesamin by drug-metabolizing enzymes in human liver” (Drug Metab Dispos, 2012).

The target of data set [1] is T1, Cytochrome P450 2C19 (Homo sapiens, UniProt P33261). Briefly: Activity of recombinant human CYP2C19 expressed in Saccharomyces cerevisiae AH22 cells assessed as enzyme-mediated compound formation treated with episesamin at 2 to 75 uM after 15 mins by HPLC analysis in presence of NADPH. Format: ADME, cell-based. The conditions noted are these: ah22, 0.25 h.
Data set [2] has as its target T2, Cytochrome P450 1A2 (Homo sapiens, UniProt P05177).
T2 sequence (P05177 whole entry): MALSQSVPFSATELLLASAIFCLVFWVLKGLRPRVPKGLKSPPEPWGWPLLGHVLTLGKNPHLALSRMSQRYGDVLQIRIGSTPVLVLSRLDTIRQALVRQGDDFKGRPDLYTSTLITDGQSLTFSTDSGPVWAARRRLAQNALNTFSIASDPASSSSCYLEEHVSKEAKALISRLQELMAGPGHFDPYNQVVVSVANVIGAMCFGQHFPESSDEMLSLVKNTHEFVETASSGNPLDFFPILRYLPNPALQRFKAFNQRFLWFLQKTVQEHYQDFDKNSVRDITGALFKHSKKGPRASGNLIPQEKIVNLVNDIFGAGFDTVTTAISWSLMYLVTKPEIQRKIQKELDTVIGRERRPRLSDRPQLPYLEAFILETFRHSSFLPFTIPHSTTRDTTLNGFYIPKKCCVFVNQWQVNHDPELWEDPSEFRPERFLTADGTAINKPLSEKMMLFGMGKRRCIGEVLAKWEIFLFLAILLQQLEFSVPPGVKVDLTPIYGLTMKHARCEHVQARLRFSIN
Briefly: Activity of recombinant human CYP1A2 expressed in Saccharomyces cerevisiae AH22 cells assessed as enzyme-mediated compound formation treated with (S)-episesamin monocatechol at 1 to 30 uM after 15 mins by HPLC analysis in presence of NADPH. The class given is ADME, cell-based. As to conditions: ah22, 0.25 h.

Data set [3] deals with T3, Cytochrome P450 2C9 (Homo sapiens, UniProt P11712). Briefly: Activity of recombinant human CYP2C9 expressed in Saccharomyces cerevisiae AH22 cells assessed as enzyme-mediated compound formation treated with (S)-episesamin monocatechol at 1 to 30 uM after 15 mins by HPLC analysis in presence of NADPH. The class given is ADME, cell-based. The conditions noted are these: ah22, 0.25 h.

Data set [4] has as its target T3, Cytochrome P450 2C9. Put plainly: Activity of recombinant human CYP2C9 expressed in Saccharomyces cerevisiae AH22 cells assessed as enzyme-mediated compound formation treated with (R)-episesamin monocatechol at 1 to 30 uM after 15 mins by HPLC analysis in presence of NADPH. Format: ADME, cell-based. The conditions noted are these: ah22, 0.25 h.
The target in data set [5] is T2, Cytochrome P450 1A2. Put plainly: Activity of recombinant human CYP1A2 expressed in Saccharomyces cerevisiae AH22 cells assessed as enzyme-mediated compound formation treated with (R)-episesamin monocatechol at 1 to 30 uM after 15 mins by HPLC analysis in presence of NADPH. The class given is ADME, cell-based. As to conditions: ah22, 0.25 h.
In data set [6] the target is T1, Cytochrome P450 2C19. Put plainly: Activity of recombinant human CYP2C19 expressed in Saccharomyces cerevisiae AH22 cells assessed as enzyme-mediated episesamin dicatechol formation after 15 mins by HPLC analysis in presence of NADPH. The class given is ADME, cell-based. The conditions noted are these: ah22, 0.25 h.
Data set [7] can be described thus: Drug metabolism in Sprague-Dawley rat liver microsomes assessed as UGT-mediated glucuronidation per mg of protein after 10 to 30 mins by HPLC analysis in presence of UDP-GlcUA. The class given is ADME.
Data set [8] can be described thus: Drug metabolism in human liver microsomes assessed as CYP450-mediated catecholization per mg of protein after 10 to 30 mins by HPLC analysis in presence of NADPH. Format: ADME.
The target in data set [9] is T4, UDP-glucuronosyltransferase 2B7 (Homo sapiens, UniProt P16662).
T4 sequence (P16662 whole entry): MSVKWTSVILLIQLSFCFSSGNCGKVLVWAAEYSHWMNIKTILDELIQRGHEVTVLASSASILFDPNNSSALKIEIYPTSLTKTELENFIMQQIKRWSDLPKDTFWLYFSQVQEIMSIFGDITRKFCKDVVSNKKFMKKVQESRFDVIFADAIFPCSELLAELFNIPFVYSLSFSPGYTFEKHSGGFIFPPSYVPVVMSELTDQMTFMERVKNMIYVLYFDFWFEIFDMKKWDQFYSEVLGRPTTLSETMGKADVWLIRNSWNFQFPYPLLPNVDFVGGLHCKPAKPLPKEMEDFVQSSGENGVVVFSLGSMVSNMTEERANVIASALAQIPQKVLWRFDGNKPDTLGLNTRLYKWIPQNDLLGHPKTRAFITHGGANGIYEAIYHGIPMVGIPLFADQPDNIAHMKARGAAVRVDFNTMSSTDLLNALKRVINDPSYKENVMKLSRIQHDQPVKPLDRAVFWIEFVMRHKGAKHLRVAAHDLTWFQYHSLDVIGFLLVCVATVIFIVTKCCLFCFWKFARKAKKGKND
Put plainly: Activity of recombinant human UGT2B7 expressed in baculovirus infected insect cells assessed as enzyme-mediated glucuronidation at 1 to 30 uM after 10 to 30 mins by HPLC analysis in presence of UDP-GlcUA. Format: ADME.

The subject of data set [10] is Liver microsome. Briefly: Drug level in human liver microsomes treated with episesamin at 2 to 75 uM after 15 mins by HPLC analysis in presence of NADPH. The class given is ADME. As to conditions: 0.25 h.
For data set [11], the target named is T2, Cytochrome P450 1A2. Put plainly: Activity of recombinant human CYP1A2 expressed in Saccharomyces cerevisiae AH22 cells assessed as enzyme-mediated episesamin dicatechol formation after 15 mins by HPLC analysis in presence of NADPH. The conditions noted are these: ah22, 0.25 h. Format: ADME, cell-based.
Data set [12] concerns CYP450. Briefly: Drug metabolism in Sprague-Dawley rat liver microsomes assessed as CYP450-mediated catecholization after 10 to 30 mins by HPLC analysis in presence of NADPH. Format: ADME. In general terms: Liver microsomes are vesicles of endoplasmic reticulum, rich in cytochrome P450 enzymes.
Data set [13] can be described thus: Drug metabolism in human liver microsomes assessed as UGT-mediated glucuronidation per mg of protein after 10 to 30 mins by HPLC analysis in presence of UDP-GlcUA. Format: ADME.
Data set [14] concerns UGT. Briefly: Drug metabolism in Sprague-Dawley rat liver microsomes assessed as UGT-mediated glucuronidation after 10 to 30 mins by HPLC analysis in presence of UDP-GlcUA. Format: ADME.
The subject of data set [15] is UGT. Briefly: Drug metabolism in human liver microsomes assessed as UGT-mediated glucuronidation after 10 to 30 mins by HPLC analysis in presence of UDP-GlcUA. The class given is ADME.
Data set [16] has as its system Liver microsome. Briefly: Drug level in human liver microsomes treated with episesamin at 5 uM after 30 mins by HPLC analysis in presence of NADPH. Format: ADME. As to conditions: 0.5 h.
The target of data set [17] is T3, Cytochrome P450 2C9. Briefly: Activity of recombinant human CYP2C9 expressed in Saccharomyces cerevisiae AH22 cells assessed as enzyme-mediated episesamin dicatechol formation after 15 mins by HPLC analysis in presence of NADPH. As to conditions: ah22, 0.25 h. Format: ADME, cell-based.
The nature of data set [18]: Drug metabolism in Sprague-Dawley rat liver microsomes assessed as CYP450-mediated catecholization per mg of protein after 10 to 30 mins by HPLC analysis in presence of NADPH. Format: ADME.
The subject of data set [19] is CYP450. Put plainly: Drug metabolism in human liver microsomes assessed as CYP450-mediated catecholization after 10 to 30 mins by HPLC analysis in presence of NADPH. Format: ADME.
Data set [20] deals with T3, Cytochrome P450 2C9. Briefly: Activity of recombinant human CYP2C9 expressed in Saccharomyces cerevisiae AH22 cells assessed as enzyme-mediated compound formation treated with episesamin at 2 to 75 uM after 15 mins by HPLC analysis in presence of NADPH. Format: ADME, cell-based. As to conditions: ah22, 0.25 h.
Data set [21] deals with T2, Cytochrome P450 1A2. Briefly: Activity of recombinant human CYP1A2 expressed in Saccharomyces cerevisiae AH22 cells assessed as enzyme-mediated compound formation treated with episesamin at 2 to 75 uM after 15 mins by HPLC analysis in presence of NADPH. Format: ADME, cell-based. As to conditions: ah22, 0.25 h.

T3 sequence (P11712 whole entry): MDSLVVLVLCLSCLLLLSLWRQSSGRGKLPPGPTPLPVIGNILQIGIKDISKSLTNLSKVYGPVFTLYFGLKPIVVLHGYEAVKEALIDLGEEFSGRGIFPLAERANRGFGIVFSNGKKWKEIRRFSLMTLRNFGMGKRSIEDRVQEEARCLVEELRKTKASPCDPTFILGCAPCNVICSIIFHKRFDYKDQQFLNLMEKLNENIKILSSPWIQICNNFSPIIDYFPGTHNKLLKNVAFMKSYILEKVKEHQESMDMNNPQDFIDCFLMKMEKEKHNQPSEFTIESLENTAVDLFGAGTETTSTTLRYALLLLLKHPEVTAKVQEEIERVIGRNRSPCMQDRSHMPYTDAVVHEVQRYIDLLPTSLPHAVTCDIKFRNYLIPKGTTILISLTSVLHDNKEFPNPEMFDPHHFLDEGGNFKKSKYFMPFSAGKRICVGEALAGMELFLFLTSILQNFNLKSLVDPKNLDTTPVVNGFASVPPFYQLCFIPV
T1 sequence (P33261 whole entry): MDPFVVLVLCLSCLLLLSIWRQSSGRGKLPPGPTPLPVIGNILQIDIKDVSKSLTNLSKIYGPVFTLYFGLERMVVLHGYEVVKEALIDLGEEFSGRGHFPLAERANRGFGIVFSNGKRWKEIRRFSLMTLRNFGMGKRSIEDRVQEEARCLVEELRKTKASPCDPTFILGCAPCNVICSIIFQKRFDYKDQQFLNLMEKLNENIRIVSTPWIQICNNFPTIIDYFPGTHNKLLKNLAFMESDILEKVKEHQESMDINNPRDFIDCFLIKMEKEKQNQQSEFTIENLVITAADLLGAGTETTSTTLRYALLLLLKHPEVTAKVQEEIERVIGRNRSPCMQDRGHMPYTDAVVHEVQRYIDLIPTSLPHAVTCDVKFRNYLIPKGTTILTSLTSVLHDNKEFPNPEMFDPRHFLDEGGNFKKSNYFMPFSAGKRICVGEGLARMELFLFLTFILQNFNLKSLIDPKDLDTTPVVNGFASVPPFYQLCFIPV

As to `Oc1ccc([C@H]2OC[C@H]3[C@@H]2CO[C@H]3c2ccc(O)c(O)c2)cc1O`, the Drug metabolism result in data set [1], in data set [2], in data set [3], in data set [4] and in data set [5] was “metabolite_detected” each time.
Turning to `Oc1ccc([C@H]2OC[C@H]3[C@@H]2CO[C@H]3c2ccc3c(c2)OCO3)cc1O`, the Drug metabolism in data set [6] is 9.4 nmol/min; in [1] it was “metabolite_detected”; in data set [9] it was “metabolite_detected”; in [10], “metabolite_detected”; in data set [11], 0.38 nmol/min; in data set [16], “metabolite_detected”. For the same molecule, the Drug metabolism in data set [17] came out at 0.19 nmol/min. Also, the Vmax worked out at 4.4 nmol/min/mg in [7], 0.28 nmol/min/mg in data set [8], 0.55 nmol/min/mg in data set [13] and 1.9 nmol/min/mg in data set [18]. Also, the Km was found to be 2.9 µM in [12], 16.8 µM in data set [14], 9.9 µM in [15] and 4.1 µM in data set [19].
With `Oc1ccc([C@@H]2OC[C@H]3[C@@H]2CO[C@@H]3c2ccc3c(c2)OCO3)cc1O`, the Drug metabolism in data set [6] is listed as 9.4 nmol/min; in data set [1], “metabolite_detected”; in data set [9], “metabolite_detected”; in data set [10], “metabolite_detected”; in [20], “metabolite_detected”; in [11], 0.38 nmol/min. The Drug metabolism result is given as “metabolite_detected” in data set [16], 0.19 nmol/min in data set [17] and “metabolite_detected” in data set [21]. Also, the Vmax stood at 0.55 nmol/min/mg in [7], 0.15 nmol/min/mg in data set [8] and 0.68 nmol/min/mg in data set [13]. For the same molecule, the Km was found to be 8.7 µM in [12], 9.9 µM in data set [14], 8.6 µM in data set [15] and 1.8 µM in data set [19].
